Test results reported in the NIST ThermoML archive (doi:10.1021/je100952p).
± gives the expanded uncertainty stated by the source.

Test: activity coefficient (dimensionless); of the first substance listed, at infinite dilution; xn = mol fraction of the nth substance listed
Conditions: 101 kPa, Liquid, Chromatography, x1 = 0

Row | SMILES | activity coefficient (303.15 K) | activity coefficient (313.15 K) | activity coefficient (323.15 K) | activity coefficient (333.15 K) | activity coefficient (343.15 K) | activity coefficient (353.15 K) | activity coefficient (363.15 K)
1 | CCCCCCC [heptane] + CCCCCCCCCCn1cc[n+](C)c1.F[B-](F)(F)F | 8.01 ± 0.52 | 7.97 ± 0.52 | 7.95 ± 0.51 | 7.93 ± 0.51 | 7.91 ± 0.51 | 7.89 ± 0.51 | 7.88 ± 0.51
2 | CCCCC [pentane] + CCCCCCCCCCn1cc[n+](C)c1.F[B-](F)(F)F | 6.88 ± 0.45 | 6.72 ± 0.43 | 6.53 ± 0.42 | 6.29 ± 0.41 | 6.12 ± 0.4 | 6.01 ± 0.39 | 5.93 ± 0.38
3 | CC(C)CC(C)(C)C [2,2,4-trimethylpentane] + CCCCCCCCCCn1cc[n+](C)c1.F[B-](F)(F)F | 9.13 ± 0.59 | 9.11 ± 0.59 | 9.1 ± 0.6 | 9.08 ± 0.59 | 9.07 ± 0.59 | 9.07 ± 0.59 | 9.06 ± 0.59
4 | Cc1cccc(C)c1 [1,3-dimethylbenzene] + CCCCCCCCCCn1cc[n+](C)c1.F[B-](F)(F)F | 2.03 ± 0.13 | 2.02 ± 0.13 | 1.97 ± 0.13 | 1.95 ± 0.13 | 1.94 ± 0.12 | 1.92 ± 0.12 | 1.91 ± 0.12
5 | Cc1ccccc1C [1,2-dimethylbenzene] + CCCCCCCCCCn1cc[n+](C)c1.F[B-](F)(F)F | 1.79 ± 0.11 | 1.77 ± 0.11 | 1.75 ± 0.11 | 1.73 ± 0.11 | 1.72 ± 0.11 | 1.72 ± 0.11 | 1.71 ± 0.11
6 | Cc1ccccc1 [toluene] + CCCCCCCCCCn1cc[n+](C)c1.F[B-](F)(F)F | 1.52 ± 0.09 | 1.49 ± 0.09 | 1.47 ± 0.09 | 1.43 ± 0.09 | 1.41 ± 0.09 | 1.4 ± 0.1 | 1.35 ± 0.08
7 | Cc1ccc(C)cc1 [1,4-dimethylbenzene] + CCCCCCCCCCn1cc[n+](C)c1.F[B-](F)(F)F | 1.99 ± 0.13 | 1.96 ± 0.13 | 1.93 ± 0.12 | 1.92 ± 0.12 | 1.91 ± 0.12 | 1.88 ± 0.12 | 1.86 ± 0.12

Second part, the compound after the results:

Row | activity coefficient (303.15 K) | activity coefficient (313.15 K) | activity coefficient (323.15 K) | activity coefficient (333.15 K) | activity coefficient (343.15 K) | activity coefficient (353.15 K) | activity coefficient (363.15 K) | SMILES
8 | 10.7 ± 0.69 | 10.7 ± 0.69 | 10.7 ± 0.69 | 10.7 ± 0.69 | 10.7 ± 0.69 | 10.7 ± 0.69 | 10.6 ± 0.69 | CCCCCCCCC [nonane] + CCCCCCCCCCn1cc[n+](C)c1.F[B-](F)(F)F
9 | 4.42 ± 0.29 | 4.43 ± 0.29 | 4.43 ± 0.29 | 4.47 ± 0.29 | 4.5 ± 0.3 | 4.56 ± 0.29 | 4.69 ± 0.3 | C1CCCCC1 [cyclohexane] + CCCCCCCCCCn1cc[n+](C)c1.F[B-](F)(F)F
10 |  | 2.02 ± 0.13 | 2.01 ± 0.13 | 1.99 ± 0.13 | 1.98 ± 0.13 | 1.97 ± 0.13 | 1.96 ± 0.13 | CCc1ccccc1 [ethylbenzene] + CCCCCCCCCCn1cc[n+](C)c1.F[B-](F)(F)F
11 | 9.3 ± 0.6 | 9.26 ± 0.6 | 9.21 ± 0.6 | 9.2 ± 0.6 | 9.17 ± 0.59 | 9.16 ± 0.59 | 9.13 ± 0.59 | CCCCCCCC [octane] + CCCCCCCCCCn1cc[n+](C)c1.F[B-](F)(F)F
12 | 7.36 ± 0.48 | 7.16 ± 0.46 | 7.03 ± 0.45 | 6.94 ± 0.45 | 6.86 ± 0.44 | 6.81 ± 0.44 | 6.68 ± 0.43 | CCCCCC [hexane] + CCCCCCCCCCn1cc[n+](C)c1.F[B-](F)(F)F
13 | 3.03 ± 0.2 | 3.01 ± 0.19 | 2.99 ± 0.19 | 2.97 ± 0.19 | 2.96 ± 0.19 | 2.96 ± 0.19 | 2.96 ± 0.19 | C1=CCCCC1 [cyclohexene] + CCCCCCCCCCn1cc[n+](C)c1.F[B-](F)(F)F
14 |  | 1.25 ± 0.08 | 1.22 ± 0.07 | 1.2 ± 0.1 | 1.18 ± 0.07 | 1.16 ± 0.07 | 1.14 ± 0.07 | C=Cc1ccccc1 [styrene] + CCCCCCCCCCn1cc[n+](C)c1.F[B-](F)(F)F
15 | 1.15 ± 0.07 | 1.14 ± 0.07 | 1.11 ± 0.07 | 1.1 ± 0.1 | 1.08 ± 0.06 | 1.07 ± 0.06 | 1.06 ± 0.06 | c1ccccc1 [benzene] + CCCCCCCCCCn1cc[n+](C)c1.F[B-](F)(F)F
16 | 5.19 ± 0.34 | 5.23 ± 0.34 | 5.24 ± 0.34 | 5.28 ± 0.34 | 5.32 ± 0.34 | 5.36 ± 0.35 | 5.39 ± 0.35 | CC1CCCCC1 [methylcyclohexane] + CCCCCCCCCCn1cc[n+](C)c1.F[B-](F)(F)F
